These results are taken from patent publication US10233426B2, “Method for inducing cardiac differentiation of pluripotent stem cell with low-molecular compounds” (KYOTO UNIVERSITY, priority 2014, dated 2019).

For test [1], the system named is mesoderm-related genes (MSGN1, T, MIXL1 and NODAL). Nature of the test: Quantitative PCR for expression of mesoderm-related genes under PFCD condition. Type of test: cell-based, human. The conditions noted are these: IMR90-1; 1 μM XAV939, 0.3 μM A419259, 10 μM AG1478, 3 μM KY03-I, day 3 to day 4; mRNA on day 4; FIG. 3f. The protocol:
A human iPS cell line (IMR90-1 cultured on MEF feeder) was cultured in PFCD culture media, to which 2 μM CHIR99021 or 0.3 μM PMA or the both (CHIR99021+PMA) were added for early phase of cardiac differentiation (day 0 to day 2). On day 2, mRNA was extracted the cultured cells and analyzed by quantitative PCR for the expression of mesoderm-related genes (MSGN1, T, MIXL1 and NODAL) (FIG. 3e). As a control, cells were cultured similarly, but with DMSO in place of the test compounds. The gene expression level in the control cells was assigned to one. […] In contrast, the expression of the genes was reduced when PMA was added to the culture. However, the reduction in gene expression by PMA was counteracted and reversed when CHIR99021 was added in combination with PMA (in accordance with the optimal PFCD condition).
A human iPS cell line (IMR90-1 from culture on MEF feeder) was cultured in PFCD media with one of 1 μM XAV939, 0.3 μM A419259, 10 μM AG1478 or 3 μM KY03-I, or all of them (XAV939+A419259+AG1478+KY03-I) in late phase of cardiac differentiation (day 3 to day 4). On day 4, mRNA was extracted from the cultured cells and analyzed by quantitative PCR for the expression of mesoderm-related genes (MSGN1, T, MIXL1 and NODAL) (FIG. 3f).

Test [2] deals with monkey ES cell line transfected with an αMHC promoter-driven GFP gene. Nature of the test: Chemical screening: GFP fluorometry for cardiac differentiation of monkey ES cells. Type of test: cell-based, cynomolgus monkey. The conditions noted are these: for increase of cardiac differentiation: alone or in combination with KY02111 (10 μM in late phase); for intensity of GFP fluorescence relative to control culture (KY02111 only, assigned to one): GFP fluorometry day 9; for cardiac differentiation (screening conclusion): under appropriate conditions, Table 1. The protocol: Pluripotent stem cells were cultured in culture media to which the test compounds were added in different concentrations (0.3 μM, 1 μM, 3 μM and 10 μM) in early phase and late phase of differentiation of the cells. Cells from the culture were subjected to GFP fluorometry in accordance with the cardiac differentiation protocol shown in FIG. 1a. Besides the test compounds, 10 μM KY02111 was included in the culture media for the late phase differentiation. The intensity of GFP fluorescence determined in the cells from the control culture, which was cultured with no test compound other than KY02111, was assigned to one.
The scheme of chemical screening is illustrated in FIG. 1a. Compounds were screened for the ability of increasing GFP fluorescence compared with the control (KY02111 alone) using a monkey ES cell line transfected with an αMHC promoter-driven GFP gene (Minami et al., Cell Reports 2, 1448-1460, 2012, which is incorporated herein by reference). The ES cell line was derived from a monkey ES cell line (cynomolgus monkey CMK6.4) by transfecting the cells with a vector which expresses green fluorescent protein (GFP) under control by a promoter of α-MHC gene (a marker of cardiac differentiation). The cells were plated at 4.0×10^5 cells per well in 6 well plates (Asahi Glass/5816-006: Ezview culture plates) and cultured for nine days in an IMDM-based medium for cardiac differentiation (200 ml IMDM medium (Sigma 13390), with 50 ml calf serum (GIBCO 10099-141), 2.5 ml MEM non-essential amino acid solution (Sigma M7145), 2.5 ml penicillin-streptomycin ([…]), 2.5 ml 200 mM L-glutamine, 2 ul 2-mercaptoethanol (Sigma M7522), and 255 ul 5N NaOH). Each test compound was added to the medium at different concentrations in the early phase (day 0 to day 3) and the late phase (day 4 to day 7) of cardiac differentiation. Cells obtained from the culture on day 9 were subjected to GFP fluorometry with a Metamorph imaging system. […]

A short description of test [3]: Induction of cardiac differentiation by a procedure as described in the Examples in WO 2012/026491. Type of test: cell-based.
Where [4] appears, read: 1 to 3 μM in late phase, FIG. 1e.
The mark [5] stands for this setting: test compound 0.3 μM in Early phase (day 0 to day 3), 10 μM KY02111 in late phase.
The mark [6] stands for this setting: test compound 0.3 μM in Late phase (day 4 to day 7) with 10 μM KY02111.
Where [7] appears, read: test compound 1 μM in Early phase (day 0 to day 3), 10 μM KY02111 in late phase.
[8] abbreviates: test compound 1 μM in Late phase (day 4 to day 7) with 10 μM KY02111.
Setting [9] is: test compound 3 μM in Early phase (day 0 to day 3), 10 μM KY02111 in late phase.
Setting [10] is: test compound 3 μM in Late phase (day 4 to day 7) with 10 μM KY02111.
Where [11] appears, read: test compound 10 μM in Early phase (day 0 to day 3), 10 μM KY02111 in late phase.
[12] abbreviates: test compound 10 μM in Late phase (day 4 to day 7) with 10 μM KY02111.

Turning to `CN1CCN(C2CCC(n3cc(-c4ccc(Oc5ccccc5)cc4)c4c(N)ncnc43)CC2)CC1` (centres unmarked) [A419259], the “expression level of NODAL” value in test [1] was “not significantly different”. Further, the “expression of MSGN1, T and MIXL1” value in test [1] is listed as “reduced”. Moreover, the “increase of cardiac differentiation” value in test [2] (setting [4]) is “two- to five-fold”. In addition, the “intensity of GFP fluorescence relative to control culture (KY02111 only, assigned to one)” value in test [2] (setting [5]) is 0.15; in test [2] (setting [6]) it was 1.7; in test [2] (setting [7]) it was 0.01; in test [2] (setting [8]) it was 5.56; in test [2] (setting [9]) it was 0; in test [2] (setting [10]) it was 4.8. Also, the “intensity of GFP fluorescence relative to control culture (KY02111 only, assigned to one)” value in test [2] (setting [11]) turned out to be 0; in test [2] (setting [12]), 0.32. Also, in test [2], the “cardiac differentiation (screening conclusion)” value is listed as “promoted”.
For the compound `COc1ccc(-c2ccc3c(N4CCOCC4)nc(N4C[C@@H](C)O[C@@H](C)C4)nc3n2)cc1CO` [K00063794], the “intensity of GFP fluorescence relative to control culture (KY02111 only, assigned to one)” value in test [2] (setting [5]) stood at 0.18; in test [2] (setting [6]) it was 0.95; in test [2] (setting [7]) it was 0.01; in test [2] (setting [8]), 0.85; in test [2] (setting [9]) it was 0; in test [2] (setting [10]) it was 0.21. For the same compound, the “intensity of GFP fluorescence relative to control culture (KY02111 only, assigned to one)” value in test [2] (setting [11]) and in test [2] (setting [12]) was 0 in each case.
In the case of `COc1ccc(CC(=O)Nc2nc3ccc(I)cc3s2)cc1OC` [KY01-I, 2-(2-(3,4-dimethoxyphenyl)acetamido)-6-iodobenzothiazole], the “effect of inducing cardiac differentiation” value in test [3] was “found to have the effect of inducing cardiac differentiation”.
For the compound `CCN(CC)CCCCNc1ncc2cc(-c3cc(OC)cc(OC)c3)c(NC(=O)NC(C)(C)C)nc2n1` [PD173074], the “intensity of GFP fluorescence relative to control culture (KY02111 only, assigned to one)” value is on record as 0.02 in test [2] (setting [5]); 0.23 in test [2] (setting [6]); 0 in test [2] (setting [7]); 0.08 in test [2] (setting [8]); 0 in test [2] (setting [9]); 0 in test [2] (setting [10]). Besides, the “intensity of GFP fluorescence relative to control culture (KY02111 only, assigned to one)” value in test [2] (setting [11]) and in test [2] (setting [12]) was 0 throughout.
For the compound `OCCn1cc(-c2cnc3nnn(Cc4ccc5ncccc5c4)c3n2)cn1` [PF042I7903], the “intensity of GFP fluorescence relative to control culture (KY02111 only, assigned to one)” value came out at 1.02 in test [2] (setting [5]); 1.09 in test [2] (setting [6]); 0.99 in test [2] (setting [7]); 1.3 in test [2] (setting [8]); 0.91 in test [2] (setting [9]); 0.82 in test [2] (setting [10]). Moreover, the “intensity of GFP fluorescence relative to control culture (KY02111 only, assigned to one)” value in test [2] (setting [11]) is 0.62; in test [2] (setting [12]), 0.78.
In the case of `COc1cc([C@@H]2c3cc4c(cc3[C@H](O)[C@H]3COC(=O)[C@@H]23)OCO4)cc(OC)c1OC` [PPP], the “intensity of GFP fluorescence relative to control culture (KY02111 only, assigned to one)” value is 0.2 in test [2] (setting [5]); 0.39 in test [2] (setting [6]); 0 in test [2] (setting [7]); 0.2 in test [2] (setting [8]); 0 in test [2] (setting [9]); 0 in test [2] (setting [10]). Further, the “intensity of GFP fluorescence relative to control culture (KY02111 only, assigned to one)” value in test [2] (setting [11]) and in test [2] (setting [12]) was 0 in each case.
On to `CC(=O)O[C@@]12C[C@@H](C)[C@@]3(O)[C@@H](C=C(CO)C[C@]4(O)C(=O)C(C)=C[C@@H]34)[C@@H]1C2(C)C` [Prostratin], for which the “increase of cardiac differentiation” value in test [2] (3 to 10 μM in early phase, FIG. 1b) is on record as “three- to eight-fold”. Also, the “intensity of GFP fluorescence relative to control culture (KY02111 only, assigned to one)” value in test [2] (setting [5]) turned out to be 0.79; in test [2] (setting [6]), 0.72; in test [2] (setting [7]) it was 2.31; in test [2] (setting [8]) it was 0.3; in test [2] (setting [9]), 5.42; in test [2] (setting [10]), 0.01. Further, the “intensity of GFP fluorescence relative to control culture (KY02111 only, assigned to one)” value in test [2] (setting [11]) is reported as 6.88; in test [2] (setting [12]) it was 0. Also, in test [2], the “cardiac differentiation (screening conclusion)” value is on record as “promoted”.
Turning to `Cc1cc(Nc2ncc3c(n2)N(C)C(=O)N(c2cc(NC(=O)c4cccc(C(F)(F)F)c4)ccc2C)C3)n(C)n1` [SC-1], the “intensity of GFP fluorescence relative to control culture (KY02111 only, assigned to one)” value in test [2] (setting [5]) was 0.16; in test [2] (setting [6]), 0.14; in test [2] (setting [7]) it was 0; in test [2] (setting [8]) it was 0; in test [2] (setting [9]), 0; in test [2] (setting [10]), 0. Moreover, the “intensity of GFP fluorescence relative to control culture (KY02111 only, assigned to one)” value in test [2] (setting [11]) and in test [2] (setting [12]) was 0 throughout.
Regarding `Cc1c[nH]c(/C=C2\C(=O)Nc3ccccc32)c1CCC(=O)O` [SU5402], the “intensity of GFP fluorescence relative to control culture (KY02111 only, assigned to one)” value in test [2] (setting [5]) turned out to be 0.09; in test [2] (setting [6]), 0.89; in test [2] (setting [7]), 0; in test [2] (setting [8]), 1; in test [2] (setting [9]) it was 0; in test [2] (setting [10]), 0.46. In addition, the “intensity of GFP fluorescence relative to control culture (KY02111 only, assigned to one)” value in test [2] (setting [11]) was found to be 0; in test [2] (setting [12]), 0.06.
In the case of `CN(C)S(=O)(=O)c1ccc2c(c1)/C(=C/c1cc3c([nH]1)CCCC3)C(=O)N2` [SU6656], in test [2] (setting [4]), the “increase of cardiac differentiation” value is given as “two- to five-fold”.
As for `Oc1nc(-c2ccc(C(F)(F)F)cc2)nc2c1CSCC2` [XAV939], in test [1], the “expression level of NODAL” value is listed as “not significantly different”; the “expression of MSGN1, T and MIXL1” value was “reduced”.
